Data taken from patent publication US20230159538A1, “PYRROLIDINE-PYRAZOLES AS PYRUVATE KINASE ACTIVATORS” (Global Blood Therapeutics, Inc., priority 2020, published 2023).

Target: T1, Human pyruvate kinase R (PKR) (Homo sapiens, UniProt P30613)
T1 construct: Human pyruvate kinase R (PKR), residues 14-574; 6x-His (N, cleaved yes); 8x-Arg (N, cleaved yes); SUMO (N, cleaved yes); host or cells: E. coli
Assay: Biochemical assay for activation of pyruvate kinase R (Kinase-Glo luminescence, ATP generation)
Details: for AC50: 0.1 nM PKR, 2 mM FBP, 0.3 mM ADP, 0.1 mM PEP; for PKR % activation: maximal activation level relative to the activation level achieved by AG-348 @ 10 μM
Experimental: Proteins were translated as fusions with 6×-His, 8×-Arg, and SUMO at the N-terminus. […] All proteins were cloned, expressed in E. coli, and purified using similar protocols. Cells were grown at 30° C. in Luria-Bertani broth supplemented with 0.4% glucose to OD600=0.8 and induced with 0.4 mM IPTG at 16° C. for 18 hours. Cells were harvested by centrifugation, resuspended in 50 mM potassium phosphate pH 8.0, 500 mM NaCl, 25 mM imidazole pH 8.0, and 3 mM β-mercaptoethanol. Cells were lysed using a LM20 microfluidizer from Microfluidics (Westwood, Mass.). The crude lysate was immediately supplemented with 0.2 mM phenylmethylsulfonyl fluoride (PMSF) and centrifuged at 20,000 g for 20 minutes. The soluble fraction was subsequently incubated with 2 mL Ni-NTA (GE Healthcare) per 1,000 ODs for 1 hour at 4° C. Following incubation with the Ni-NTA resin, lysate was removed by pelleting resin at 2,500 g for 3 minutes and washed 3 times with 9 bed volumes of 50 mM potassium phosphate pH 8.0, 500 mM NaCl, 25 mM imidazole, and 3 mM β-mercaptoethanol. Following the batch wash Ni-NTA resin was loaded onto a gravity column and His-tagged protein was eluted with 6 bed volumes of 10 mM Tris/HCl pH 8.0, 200 mM NaCl, 500 mM imidazole, and 3 mM β-mercaptoethanol. Eluted protein was dialyzed overnight against 10 mM Tris/HCl pH 8.0, 200 mM NaCl, and 1 mM DTT and the 6×-His-8×-Arg-SUMO-tag was cleaved using a 20:1 molar ratio of protein:3C protease. The protein was purified by anion exchange chromatography on a HiTrapQ or MonoQ 10/100 GL column (GE Healthcare) via a linear NaCl gradient and twice by size exclusion chromatography using a Superdex S200 26/60 column (GE Healthcare) run in 10 mM Tris/HCl pH 8.0, 200 mM NaCl, 10 mM MgCl2, 1 mM DTT. Proteins were concentrated to ˜12 mg/mL for crystallization and flash frozen for storage.
Biochemical Assay for Activation of Pyruvate Kinase R
Activation of pyruvate kinase R (PKR) and pyruvate kinase M2 (PKM2) were measured using a luminescence based measurement of ATP generation and the Kinase-Glo luminescent kinase reagent kit.

T1 sequence (P30613 14-574): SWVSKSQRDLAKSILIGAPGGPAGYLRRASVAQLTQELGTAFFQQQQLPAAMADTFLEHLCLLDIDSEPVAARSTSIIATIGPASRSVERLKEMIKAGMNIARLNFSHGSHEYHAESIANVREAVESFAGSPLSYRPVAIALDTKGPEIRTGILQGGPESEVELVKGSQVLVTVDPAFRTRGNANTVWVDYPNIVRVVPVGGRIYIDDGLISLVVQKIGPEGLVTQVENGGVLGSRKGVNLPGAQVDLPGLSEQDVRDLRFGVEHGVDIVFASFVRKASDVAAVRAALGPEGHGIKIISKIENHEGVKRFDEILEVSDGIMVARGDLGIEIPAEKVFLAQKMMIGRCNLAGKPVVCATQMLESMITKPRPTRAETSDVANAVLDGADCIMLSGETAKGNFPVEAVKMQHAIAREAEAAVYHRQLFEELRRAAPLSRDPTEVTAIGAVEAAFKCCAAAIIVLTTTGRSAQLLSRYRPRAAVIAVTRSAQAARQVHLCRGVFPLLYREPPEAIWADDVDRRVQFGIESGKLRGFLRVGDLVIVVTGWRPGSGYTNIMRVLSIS

SMILES	AC50	PKR % activation
O=C(N1Cc2cn(S(=O)(=O)c3ccc4ncsc4c3)nc2C1)[C@@]1(c2ccccc2)CCCN1 (single isomer, unassigned) [Compound 61, 6-({5-[(2S)-2-phenylpyrrolidine-2-carbonyl]-2H,4H,5H,6H-pyrrolo[3,4-c]pyrazol-2-yl}sulfonyl)-1,3-benzothiazole or 6-({5-[(2R)-2-phenylpyrrolidine-2-carbonyl]-2H,4H,5H,6H-pyrrolo[3,4-c]pyrazol-2-yl}sulfonyl)-1,3-benzothiazole]	452 nM	48%
C[C@@H](O)[C@H](C(=O)N1Cc2cn(S(=O)(=O)c3ccc4cn[nH]c4c3)nc2C1)c1ccccc1 (single isomer, unassigned) [Compound 62]	47 nM	115%
C[C@@H](O)[C@@H](C(=O)N1Cc2cn(S(=O)(=O)c3ccc(OC(F)F)cc3)nc2C1)c1ccccc1Cl (single isomer, unassigned) [Compound 66]	13 nM	142%
C[C@@H](O)[C@@H](C(=O)N1Cc2cn(S(=O)(=O)c3ccc(OC(F)F)cc3)nc2C1)c1ccccc1Cl (single isomer, unassigned) [Compound 68]	10 nM	179%
CC(O)C(C(=O)N1Cc2cn(S(=O)(=O)c3ccc4ncsc4c3)nc2C1)c1ccccc1Cl (single isomer, unassigned) [Compound 69]	4.7 nM	–
C[C@@H](O)[C@@H](C(=O)N1Cc2cn(S(=O)(=O)c3cnc4c(c3)OCCO4)nc2C1)c1ccccc1Cl (single isomer, unassigned) [Compound 70]	15 nM	80%
O=C(C(CO)c1ccccc1Cl)N1Cc2cn(S(=O)(=O)c3cnc4c(c3)OCCO4)nc2C1 (single isomer, unassigned) [Compound 71, (2S,3R)-2-(2-chlorophenyl)-1-(2-[2H,3H[1,4]dioxino[2,3-b]pyridine-7-sulfonyl]-4H,6H-pyrrolo[3,4-c]pyrazol-5-yl)-3-hydroxybutan-1-one or (2R,3R)-2-(2-chlorophenyl)-1-(2-[2H,3H-[1,4]dioxino[2,3-b]pyridine-7-sulfonyl]-4H,6H-pyrrolo[3,4-c]pyrazol-5-yl)-3-hydroxybutan-1-one]	8.9 nM	–
O=C([C@H](O)c1ncccc1F)N1Cc2cn(S(=O)(=O)c3ccc4ncsc4c3)nc2C1 (single isomer, unassigned) [Compound 74, (2R)-1-[2-(1,3-benzothiazole-6-sulfonyl)-2H,4H,5H,6H-pyrrolo[3,4-c]pyrazol-5-yl]-2-(3-fluoropyridin-2-yl)-2-hydroxyethan-1-one or (2S)-1-[2-(1,3-benzothiazole-6-sulfonyl)-2H,4H,5H,6H-pyrrolo[3,4-c]pyrazol-5-yl]-2-(3-fluoropyridin-2-yl)-2-hydroxyethan-1-one]	8.5 nM	100%
COc1ccc(S(=O)(=O)n2cc3c(n2)CN(C(=O)[C@H](O)c2ncccc2F)C3)cc1 (single isomer, unassigned) [Compound 87, (2R)-2-(3-fluoropyridin-2-yl)-2-hydroxy-1-[2-(4-methoxybenzenesulfonyl)-2H,4H,5H,6H-pyrrolo[3,4-c]pyrazol-5-yl]ethan-1-one or (2R)-2-(3-fluoropyridin-2-yl)-2-hydroxy-1-[2-(4-methoxybenzenesulfonyl)-2H,4H,5H,6H-pyrrolo[3,4-c]pyrazol-5-yl]ethan-1-one]	25 nM	156%
O=C([C@H](CO)c1ncccc1F)N1Cc2cn(S(=O)(=O)c3ccc(OC(F)F)cc3)nc2C1 (single isomer, unassigned) [Compound 89, (2S)-1-{2-[4-(difluoromethoxy)benzenesulfonyl]-2H,4H,5H,6H-pyrrolo [3,4-c]pyrazol-5-yl}-2-(3-fluoropyridin-2-yl)-3-hydroxypropan-1-one or (2R)-1-{2-[4-(difluoromethoxy)benzenesulfonyl]-2H,4H,5H,6H-pyrrolo[3,4-c]pyrazol-5-yl}-2-(3-fluoropyridin-2-yl)-3-hydroxypropan-1-one]	7.9 nM	132%
O=C1CN([C@@H](C(=O)N2Cc3cn(S(=O)(=O)c4ccc(OC(F)F)cc4)nc3C2)c2ccccc2)C1 (single isomer, unassigned) [Compound 92, 1-[(1R)-2-{2-[4-(difluoromethoxy)benzenesulfonyl]-2H,4H,5H,6H-pyrrolo[3,4-c]pyrazol-5-yl}-2-oxo-1-phenylethyl]azetidin-3-one or 1-[(1S)-2-{2-[4-(difluoromethoxy)benzenesulfonyl]-2H,4H,5H,6H-pyrrolo[3,4-c]pyrazol-5-yl}-2-oxo-1-phenylethyl]azetidin-3-one]	800 nM	120%
O=C1CN([C@@H](C(=O)N2Cc3cn(S(=O)(=O)c4ccc(OC(F)F)cc4)nc3C2)c2ccccc2)C1 (single isomer, unassigned) [Compound 93, 1-[(1R)-2-{2-[4-(difluoromethoxy)benzenesulfonyl]-2H,4H,5H,6H-pyrrolo[3,4-c]pyrazol-5-yl}-2-oxo-1-phenylethyl]azetidin-3-one or 1-[(1S)-2-{2-[4-(difluoromethoxy)benzenesulfonyl]-2H,4H,5H,6H-pyrrolo[3,4-c]pyrazol-5-yl}-2-oxo-1-phenylethyl]azetidin-3-one]	5550 nM	84%
O=C([C@@H](c1ccccc1)N1CCC1=O)N1Cc2cn(S(=O)(=O)c3ccc(OC(F)F)cc3)nc2C1 (single isomer, unassigned) [Compound 99, 1-[(1R)-2-{2[4-(difluoromethoxy)benzenesulfonyl]-2H,4H,5H,6H-pyrrolo[3,4-c]pyrazol-5-yl}-2-oxo-1-phenylethyl]azetidin-2-one or 1-[(1S)-2-{2-[4-(difluoromethoxy)benzenesulfonyl]-2H,4H,5H,6H-pyrrolo[3,4-c]pyrazol-5-yl}-2-oxo-1-phenylethyl]azetidin-2-one]	190 nM	92%
O=C([C@@H](c1ccccc1)N1CCC1=O)N1Cc2cn(S(=O)(=O)c3ccc(OC(F)F)cc3)nc2C1 (single isomer, unassigned) [Compound 100, 1-[(1R)-2-{2-[4-(difluoromethoxy)benzenesulfonyl]-2H,4H,5H,6H-pyrrolo[3,4-c]pyrazol-5-yl}-2-oxo-1-phenylethyl]azetidin-2-one or 1-[(1S)-2-{2-[4-(difluoromethoxy)benzenesulfonyl]-2H,4H,5H,6H-pyrrolo[3,4-c]pyrazol-5-yl}-2-oxo-1-phenylethyl]azetidin-2-one]	> 10000 nM	0%
O=C([C@H](CO)c1ncccc1F)N1Cc2cn(S(=O)(=O)c3ccc4ncccc4c3)nc2C1 (single isomer, unassigned) [Compound 102, (2S)-2-(3-fluoropyridin-2-yl)-3-hydroxy-1-[2-(quinoline-6-sulfonyl)-2H,4H,5H,6H-pyrrolo[3,4-c]pyrazol-5-yl]propan-1-one or (2R)-2-(3-fluoropyridin-2-yl)-3-hydroxy-1-[2-(quinoline-6-sulfonyl)-2H,4H,5H,6H-pyrrolo[3,4-c]pyrazol-5-yl]propan-1-one]	12 nM	81%
O=C([C@H](CO)c1ncccc1F)N1Cc2cn(S(=O)(=O)c3ccc4ncccc4c3)nc2C1 (single isomer, unassigned) [Compound 103, (2S)-2-(3-fluoropyridin-2-yl)-3-hydroxy-1-[2-(quinoline-6-sulfonyl)-2H,4H,5H,6H-pyrrolo[3,4-c]pyrazol-5-yl]propan-1-one or (2R)-2-(3-fluoropyridin-2-yl)-3-hydroxy-1-[2-(quinoline-6-sulfonyl)-2H,4H,5H,6H-pyrrolo[3,4-c]pyrazol-5-yl]propan-1-one]	220 nM	41%
O=C([C@@H](c1ccccc1)N1CCOCC1)N1Cc2cn(S(=O)(=O)c3ccc(OC(F)F)cc3)nc2C1 (single isomer, unassigned) [Compound 107, (2R)-1-{2-[4-(difluoromethoxy)benzenesulfonyl]-2H,4H,5H,6H-pyrrolo[3,4-c]pyrazol-5-yl}-2-(morpholin-4-yl)-2-phenylethan-1-one or (2S)-1-{2-[4-(difluoromethoxy)benzenesulfonyl]-2H,4H,5H,6H-pyrrolo[3,4-c]pyrazol-5-yl}-2-(morpholin-4-yl)-2-phenylethan-1-one]	> 10000 nM	0%
